Results reported in ChEMBL document CHEMBL4813920, “Metronidazole-conjugates: A comprehensive review of recent developments towards synthesis and medicinal perspective” (Eur J Med Chem, 2021).
Converted amounts (≈) assume the structure as drawn. Values belong to the compound of their own block, whether it stands above or below them.

Tests used:
Pancreatic alpha-amylase = biological target: T1, Pancreatic alpha-amylase (Sus scrofa, UniProt P00690); experiment: Inhibition of porcine pancreatic alpha-amylase using 1% starch as substrate preincubated for 10 mins followed by substrate addition and measured after 10 mins by absorbance method
T1 sequence (P00690 whole entry): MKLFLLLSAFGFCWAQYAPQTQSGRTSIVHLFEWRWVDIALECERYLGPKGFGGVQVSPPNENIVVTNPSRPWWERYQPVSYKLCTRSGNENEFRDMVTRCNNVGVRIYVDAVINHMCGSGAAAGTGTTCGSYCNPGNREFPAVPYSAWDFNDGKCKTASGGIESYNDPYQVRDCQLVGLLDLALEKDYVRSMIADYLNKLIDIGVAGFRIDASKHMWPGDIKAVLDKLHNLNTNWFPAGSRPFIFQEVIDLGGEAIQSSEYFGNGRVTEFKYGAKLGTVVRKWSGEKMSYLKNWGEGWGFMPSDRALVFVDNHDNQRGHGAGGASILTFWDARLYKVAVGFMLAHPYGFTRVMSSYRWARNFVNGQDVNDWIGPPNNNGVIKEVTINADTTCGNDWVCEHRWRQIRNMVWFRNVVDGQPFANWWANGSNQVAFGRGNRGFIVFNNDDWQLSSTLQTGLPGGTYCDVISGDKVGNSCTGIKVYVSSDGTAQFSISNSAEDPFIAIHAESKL

Entamoeba histolytica [1] = experiment: Antiamoebic activity against Entamoeba histolytica HK9 ATCC 30015 incubated for 72 hrs by trypan blue staining based assay; format: functional, organism-based; details: ATCC 30015, 72 h
Giardia intestinalis [2] = experiment: Antigiardial activity against Giardia intestinalis WB ATCC 30957 incubated for 72 hrs by trypan blue staining based assay; format: functional, organism-based; details: Giardia duodenalis, WB ATCC 30957, 72 h
Candida albicans = experiment: Antifungal activity against Candida albicans ATCC 10231 incubated for 24 hrs by broth microdilution method; format: functional
Clostridium sporogenes = experiment: Antimicrobial activity against Clostridium sporogenes ATCC 19404 incubated for 24 hrs by broth microdilution method; format: functional
Carbonic anhydrase 2 = Carbonic anhydrase 2 (Homo sapiens, UniProt P00918); experiment: Inhibition of recombinant human carbonic anhydrase 2 preincubated with enzyme for 15 mins by phenol red dye based stopped flow CO2 hydration assay
Carbonic anhydrase 9 = Carbonic anhydrase 9 (Homo sapiens, UniProt Q16790); experiment: Inhibition of recombinant human carbonic anhydrase 9 preincubated with enzyme for 15 mins by phenol red dye based stopped flow CO2 hydration assay
Escherichia coli [3] = experiment: Antibacterial activity against Escherichia coli ATCC 35218 incubated for 24 hrs by two fold serial dilution method; format: functional
Pseudomonas aeruginosa = experiment: Antibacterial activity against Pseudomonas aeruginosa ATCC 13525 incubated for 24 hrs by two fold serial dilution method; format: functional
Bacillus spizizenii = experiment: Antibacterial activity against Bacillus subtilis ATCC 6633 incubated for 24 hrs by two fold serial dilution method; format: functional
Staphylococcus aureus [4] = experiment: Antibacterial activity against Staphylococcus aureus ATCC 6538 incubated for 24 hrs by two fold serial dilution method; format: functional
HEK293 = experiment: Cytotoxicity against HEK293 cells after 24 hrs by MTT assay; format: cell-based; details: Homo sapiens, HEK293, 24 h
Entamoeba histolytica [5] = experiment: Antiamoebic activity against Entamoeba histolytica HK9 ATCC 30015 by trypan blue staining based assay; format: functional, organism-based
Giardia intestinalis [6] = experiment: Antigiardial activity against Giardia intestinalis WB ATCC 30957 by trypan blue staining based assay; format: functional, organism-based; details: Giardia duodenalis
Giardia intestinalis [7] = experiment: Antigiardial activity against Giardia intestinalis MSS:0696:1 incubated for 48 hrs; format: functional, organism-based; details: Giardia duodenalis, MSS:0696:1, 48 h
Trichomonas vaginalis = experiment: Anti-trichomonas activity against Trichomonas vaginalis GT3 incubated for 48 hrs; format: functional, organism-based; details: GT3, 48 h
[8] = Selectivity index, ratio of CC50 for African green monkey Vero cells to IC50 for antigiardial activity against Giardia intestinalis MSS:0696:1; format: toxicity; details: read-out: Ratio CC50/IC50
[9] = Selectivity index, ratio of CC50 for African green monkey Vero cells to IC50 for antigiardial activity against Trichomonas vaginalis GT3; format: toxicity; details: read-out: Ratio CC50/IC50
Escherichia coli [10] = experiment: Antibacterial activity against Escherichia coli ATCC 8739 incubated for 24 hrs by broth microdilution method; format: functional
Staphylococcus aureus [11] = experiment: Antibacterial activity against Staphylococcus aureus ATCC 6538P incubated for 24 hrs by broth microdilution method; format: functional
[12] = Inhibition of Escherichia coli N-terminal His-tagged FabH expressed in Escherichia coli BL21(DE3) by liquid scintillation counting method
[13] = Acute oral toxicity in mouse assessed as induction of mortality measured once daily for 14 days; details: in vivo, time 14 day
[14] = Acute oral toxicity in mouse assessed as signs of gross toxicity measured once daily for 14 days; details: in vivo, time 14 day
[15] = Acute oral toxicity in mouse assessed as behavioral changes measured once daily for 14 days; details: in vivo, time 14 day
MDA-MB-231 = experiment: Antiproliferative activity against human MDA-MB-231 cells after 24 hrs by MTT assay; format: functional, cell-based; details: MDA-MB-231, 24 h

- IC50 (Pancreatic alpha-amylase): 1660 nM
Compound: Cc1ncc([N+](=O)[O-])n1CCOCc1ccc2ccccc2c1

Compound: Clc1ccc2c(N3CCNCC3)ccnc2c1
- IC50 (Entamoeba histolytica [1]): 94.3 µM
- IC50 (Giardia intestinalis [2]): 88.4 µM

- MIC (Candida albicans): 170 µM (≈ 49 µg/mL)
Compound: COc1ccc(/C=N/CCn2c([N+](=O)[O-])cnc2C)cc1

- MIC (Clostridium sporogenes): 17.1 µM (≈ 7.82 µg/mL)
Compound: Cc1ncc([N+](=O)[O-])n1CCSc1nnc(-c2ccncc2)n1-c1cccc2ccccc12

- IC50 (Pancreatic alpha-amylase): < 2980 nM
Compound: Cc1ncc([N+](=O)[O-])n1CCOCc1ccncc1

- IC50 (Carbonic anhydrase 2): 16 nM
- IC50 (Carbonic anhydrase 9): 93 nM
Compound: Cc1ncc([N+](=O)[O-])n1CCOc1ccc(/C=N\c2ccc(S(=O)(=O)Nc3nccs3)cc2)cc1

- MIC (Escherichia coli [3]): 1.56 µg/mL (≈ 3.23 µM)
- MIC (Pseudomonas aeruginosa): 3.13 µg/mL (≈ 6.47 µM)
- MIC (Bacillus spizizenii): 0.78 µg/mL (≈ 1.61 µM)
- MIC (Staphylococcus aureus [4]): 1.56 µg/mL (≈ 3.23 µM)
Compound: NC[C@H]1O[C@H](O[C@H]2[C@H](O)[C@@H](O[C@H]3O[C@H](CO)[C@@H](O)[C@H](N)[C@H]3O)[C@H](N)C[C@@H]2N)[C@H](N)[C@@H](O)[C@@H]1O [BEKANAMYCIN]

- IC50 (Pancreatic alpha-amylase): < 2980 nM
Compound: COc1cccc(COCCn2c([N+](=O)[O-])cnc2C)c1

- MIC (Candida albicans): 170 µM (≈ 51.6 µg/mL)
Compound: Cc1ncc([N+](=O)[O-])n1CC/N=C/c1ccc([N+](=O)[O-])cc1

Compound: Cc1ncc([N+](=O)[O-])n1Cc1cn(CCCCCN2C(=O)C(=O)c3cc(Cl)ccc32)nn1
- IC50 (HEK293): 12.1 µM

- IC50 (Pancreatic alpha-amylase): < 2980 nM
Compound: Cc1ccc(COCCn2c([N+](=O)[O-])cnc2C)cc1

- IC50 (Pancreatic alpha-amylase): < 2980 nM
Compound: Cc1ncc([N+](=O)[O-])n1CCOCc1ccccc1Br

Compound: CCOC(=O)[C@H](CC(=O)O)NC(=O)Cn1c([N+](=O)[O-])cnc1C
- IC50 (Entamoeba histolytica [5]): 2210 nM
- IC50 (Giardia intestinalis [6]): 2260 nM

- IC50 (Giardia intestinalis [7]): 4.41 µM
- IC50 (Trichomonas vaginalis): 13.5 µM
Compound: Cc1ncc([N+](=O)[O-])n1CC(C)O (configuration not stated) [SECNIDAZOLE]
- selectivity ratio [8]: > 24
- selectivity ratio [9]: > 7

- MIC (Candida albicans): 170 µM (≈ 49.8 µg/mL)
Compound: Cc1ncc([N+](=O)[O-])n1CC/N=C/c1ccccc1Cl

- IC50 (Pancreatic alpha-amylase): < 2980 nM
Compound: COc1cc(COCCn2c([N+](=O)[O-])cnc2C)cc(OC)c1

- IC50 (Pancreatic alpha-amylase): < 2980 nM
Compound: Cc1ncc([N+](=O)[O-])n1CCOCc1ccccc1Cl

- MIC (Clostridium sporogenes): 17.8 µM (≈ 7.79 µg/mL)
Compound: COc1ccc(-n2c(SCCn3c([N+](=O)[O-])cnc3C)nnc2-c2cccnc2)cc1
- IC50 (Entamoeba histolytica [5]): 480 nM
- IC50 (Giardia intestinalis [6]): 1780 nM

- MIC (Escherichia coli [10]): 2240 µM (≈ 614 µg/mL)
- MIC (Staphylococcus aureus [11]): 2000 µM (≈ 549 µg/mL)
- MIC (Candida albicans): 170 µM (≈ 46.6 µg/mL)
Compound: Cc1ncc([N+](=O)[O-])n1CC/N=C/c1ccccc1O

- IC50 (Carbonic anhydrase 2): 89 nM
- IC50 (Carbonic anhydrase 9): 38 nM
Compound: Cc1ncc([N+](=O)[O-])n1CCOc1cccc(/C=N\c2ccc(S(=O)(=O)Nc3nccs3)cc2)c1

Compound: Cc1cc(C)nc(NS(=O)(=O)c2ccc(/N=C/c3ccc(C(=O)OCCn4c([N+](=O)[O-])cnc4C)cc3)cc2)n1
- IC50 [12]: 2690 nM
- MIC (Escherichia coli [3]): 1.56 µg/mL (≈ 2.77 µM)
- MIC (Pseudomonas aeruginosa): 3.13 µg/mL (≈ 5.55 µM)
- MIC (Bacillus spizizenii): 1.56 µg/mL (≈ 2.77 µM)
- MIC (Staphylococcus aureus [4]): 3.13 µg/mL (≈ 5.55 µM)
- LD50 at 336 h [13]: > 5000 mg/kg
- LD50 at 336 h [14]: > 5000 mg/kg
- LD50 at 336 h [15]: > 5000 mg/kg

Compound: Cn1c(-c2ccncc2)n[nH]c1=S
- IC50 (Entamoeba histolytica [5]): 1370 nM
- IC50 (Giardia intestinalis [6]): 1560 nM

- IC50 (Carbonic anhydrase 2): 33 nM
- IC50 (Carbonic anhydrase 9): 112 nM
Compound: Cc1cc(NNS(=O)(=O)c2ccc(/N=C\c3ccc(OCCn4c([N+](=O)[O-])cnc4C)cc3)cc2)no1

Compound: Cc1ncc([N+](=O)[O-])n1CCNC(=O)/C=C/c1ccc([N+](=O)[O-])o1
- IC50 (Entamoeba histolytica [1]): 5.32 µM

Compound: CCOC(=O)C(CCCCNC(=O)C(C)n1c([N+](=O)[O-])cnc1C)NC(=O)Cn1c([N+](=O)[O-])cnc1C (configuration not stated)
- IC50 (Entamoeba histolytica [5]): 3950 nM
- IC50 (Giardia intestinalis [6]): 3840 nM

- IC50 (Pancreatic alpha-amylase): < 2980 nM
Compound: Cc1ncc([N+](=O)[O-])n1CCOCc1ccc(Br)cc1

Compound: CC1=CC(=O)c2c(O)cccc2C1=O [PLUMBAGIN]
- IC50 (MDA-MB-231): 4.4 µM

- MIC (Candida albicans): 170 µM (≈ 44.9 µg/mL)
Compound: Cc1ncc([N+](=O)[O-])n1CC/N=C/c1cccs1
